In brackets after ≈: the same amount, converted by molar mass. Read-outs that look alike come from different tables or passages of the source.
What was measured:
[1] = test system: C. albicans ATCC 10231 (strain A); assay: MIC, broth microdilution (CLSI M27-A3), yeast strain A; type: cell-based, Candida albicans; details: Candida albicans, ATCC10231; MIC-0, strain A, 35 °C 48 h
Experimental: (§1) The final concentrations of compounds 3, 4, 7a, 7b, 9, and 16, as well as that of TOB tested in this study ranged from 0.24–62.5 μg/mL. CAS was used as a positive control and the final concentrations tested for CAS ranged from 0.03–31.3 μg/mL. Briefly, overnight yeast cultures were grown in yeast peptone dextrose (YPD) broth and the cell density was adjusted to an OD600 of 0.12 (~1 × 10^6 CFU/mL) by using a spectrophotometer. Yeast cell suspensions were further diluted to achieve 1–5 × 10^3 CFU/mL in RPMI 1640 medium, and 100 μL of these yeast cells was added to 96-well microtiter plates containing RPMI 1640 medium and titrated compounds. Each test was performed in triplicate. The plates were incubated at 35 °C for 48 h.

[2] = test system: C. albicans ATCC 64124 (strain B); assay: MIC, broth microdilution (CLSI M27-A3), yeast strain B; type: cell-based; details: Candida albicans, ATCC64124; MIC-0, strain B, 35 °C 48 h
Experimental: as §1

[3] = test system: C. albicans ATCC MYA-2876(S) (strain C); assay: MIC, broth microdilution (CLSI M27-A3), yeast strain C; type: cell-based; details: Candida albicans; MIC-0, strain C, 35 °C 48 h
Experimental: as §1

[4] = test system: C. albicans ATCC 90819(R) (strain D); assay: MIC, broth microdilution (CLSI M27-A3), yeast strain D; type: cell-based; details: Candida albicans, ATCC90819; MIC-0, strain D, 35 °C 48 h
Experimental: as §1

[5] = test system: C. albicans ATCC MYA-2310(S) (strain E); assay: MIC, broth microdilution (CLSI M27-A3), yeast strain E; type: cell-based; details: Candida albicans; MIC-0, strain E, 35 °C 48 h
Experimental: as §1

[6] = test system: C. albicans ATCC MYA-1237(R) (strain F); assay: MIC, broth microdilution (CLSI M27-A3), yeast strain F; type: cell-based; details: Candida albicans; MIC-0, strain F, 35 °C 48 h
Experimental: as §1

[7] = test system: Candida glabrata clinical isolate CG1; assay: MIC, broth microdilution (CLSI M27-A3), CG1; type: cell-based; details: Nakaseomyces glabratus; MIC-0, CG1, 35 °C 48 h
Experimental: as §1

[8] = test system: Candida glabrata clinical isolate CG3; assay: MIC, broth microdilution (CLSI M27-A3), CG3; type: cell-based; details: Nakaseomyces glabratus; MIC-0, CG3, 35 °C 48 h
Experimental: as §1

[9] = test system: Candida glabrata ATCC 2001 (strain H); assay: MIC, broth microdilution (CLSI M27-A3), yeast strain H; type: cell-based; details: Nakaseomyces glabratus, ATCC2001; MIC-0, strain H, 35 °C 48 h
Experimental: as §1

[10] = test system: Candida krusei ATCC 6258 (strain I); assay: MIC, broth microdilution (CLSI M27-A3), yeast strain I; type: cell-based; details: Pichia kudriavzevii, ATCC6258; MIC-0, strain I, 35 °C 48 h
Experimental: as §1

[11] = test system: Candida parapsilosis ATCC 22019 (strain J); assay: MIC, broth microdilution (CLSI M27-A3), yeast strain J; type: cell-based; details: Lodderomyces parapsilosis, ATCC22019; MIC-0, strain J, 35 °C 48 h
Experimental: as §1

[12] = test system: Candida parapsilosis clinical isolate CP3; assay: MIC, broth microdilution (CLSI M27-A3), CP3; type: cell-based; details: MIC-0, CP3, 35 °C 48 h
Experimental: as §1

[13] = test system: Cryptococcus neoformans clinical isolate CN1; assay: MIC, broth microdilution (CLSI M27-A3), CN1; type: cell-based; details: MIC-0, CN1, 35 °C 48 h
Experimental: as §1

[14] = test system: Cryptococcus neoformans clinical isolate CN2; assay: MIC, broth microdilution (CLSI M27-A3), CN2; type: cell-based; details: MIC-0, CN2, 35 °C 48 h
Experimental: as §1

[15] = test system: Cryptococcus neoformans clinical isolate CN3; assay: MIC, broth microdilution (CLSI M27-A3), CN3; type: cell-based; details: MIC-0, CN3, 35 °C 48 h
Experimental: as §1

[16] = test system: Aspergillus nidulans ATCC 38163 (strain L); assay: MIC, filamentous fungi (CLSI M38-A2), strain L; type: cell-based; details: MIC-0, strain L, 35 °C 72 h
Experimental: (§2) The spores were harvested from sporulating cultures growing on potato dextrose agar (PDA) by filtration through sterile glass wool and enumerated by using a hemocytometer (Hausser Scientific, Horsham, PA, USA) to obtain the desired inoculum size. Two-fold serial dilutions of compounds 3, 4, 7a, 7b, 9, and 16, as well as CAS and TOB were made in sterile 96-well microtiter plates to obtain the final concentration range of 0.24–62.5 μg/mL for TOB and TOB derivatives as well as 0.03–31.3 μg/mL for CAS in the RPMI 1640 medium. The spore suspensions were added to the wells to afford a final concentration of 5 × 10^5 spores/mL. The plates were incubated at 35 °C for 72 h. […] Each test was performed in triplicate.

[17] = test system: Aspergillus terreus ATCC MYA-3633 (strain M); assay: MIC, filamentous fungi (CLSI M38-A2), strain M; type: cell-based; details: MIC-0, strain M, 35 °C 72 h
Experimental: as §2

[18] = test system: seven C. albicans strains (A-G); assay: MIC across the panel of seven C. albicans strains; type: cell-based; details: Candida albicans; across all seven C. albicans strains tested
Experimental: as §1

[19] = test system: nine non-albicans Candida strains (H-J, CG1-3, CP1-3); assay: MIC across the panel of nine non-albicans Candida strains; type: cell-based, Candida glabrata, Candida krusei, Candida parapsilosis
Experimental: as §1

BEAS-2B cell line = assay: In vitro cytotoxicity assay (resazurin), BEAS-2B; type: cell-based, human; details: Homo sapiens, 24 h, resazurin
Experimental: Mammalian cytotoxicity assays were performed as previously described with minor modifications. The normal human bronchial epithelial cells BEAS-2B and the human lung carcinoma epithelial cells A549 were grown in DMEM containing 10% fetal bovine serum (FBS) and 1% antibiotics. The confluent cells were then trypsinized with 0.05% trypsin and 0.53 mM EDTA, and resuspended in fresh DMEM medium. The cells were transferred into 96-well microtiter plates at a density of 3000 cells/well and were grown for 24 h. The following day, the medium was replaced by a fresh culture medium containing serially diluted compounds 3, 4, 7a, 7b, and 9, as well as the parent drug TOB at final concentrations of 0.48–62.5 μg/mL or sterile ddH2O (negative control). The cells were incubated for an additional 24 h at 37 °C with 5% CO2 in a humidified incubator. To evaluate cell survival, each well was treated with 10 μL (25 μg/mL) of resazurin sodium salt (Sigma-Aldrich) for 4–6 h. Metabolically active cells can convert resazurin (blue) to the highly fluorescent dye resorufin (pink), which was detected at λ560 excitation and λ590 emission wavelengths by using a SpectraMax M5 plate reader. Triton X-100® (1% v/v) gave the complete loss of cell viability and was used as the positive control. The percentage survival rates were calculated by using the following formula: % cell survival = [(fluorescence of sample) − (fluorescence of blank)] × 100/[(fluorescence of negative control) − (fluorescence of blank)].

[20] = Aspergillus nidulans, ATCC38163, 72 h, read-out: MIC

MIC [1] [µg/mL] | MIC [2] [µg/mL] | MIC [3] [µg/mL] | MIC [4] [µg/mL] | MIC [5] [µg/mL] | MIC [6] [µg/mL] | MIC [7] [µg/mL] | MIC [8] [µg/mL] | MIC [9] [µg/mL] | MIC [10] [µg/mL] | MIC [11] [µg/mL] | MIC [12] [µg/mL] | MIC [13] [µg/mL] | MIC [14] [µg/mL] | MIC [15] [µg/mL] | MIC [16, 20] [µg/mL] | MIC [16] [µg/mL] | MIC [17] [µg/mL] | MIC [18] [µg/mL] | MIC [19] [µg/mL] | SMILES | also measured
15.6 (≈ 23.9 µM) | 15.6 (≈ 23.9 µM) | 15.6 (≈ 23.9 µM) | 15.6 (≈ 23.9 µM) | 15.6 (≈ 23.9 µM) | 7.8 (≈ 12 µM) | 15.6 (≈ 23.9 µM) | 15.6 (≈ 23.9 µM) | 7.8 (≈ 12 µM) | 3.9 (≈ 5.98 µM) | 7.8 (≈ 12 µM) | 15.6 (≈ 23.9 µM) | 0.975 (≈ 1.5 µM) | 0.48 (≈ 0.736 µM) | 0.48 (≈ 0.736 µM) | 1.95 to 3.9 (≈ 2.99 to 5.98 µM) | 3.9 (≈ 5.98 µM) | > 62.5 | 7.8 to 31.3 (≈ 12 to 48 µM) | 3.9 to 15.6 (≈ 5.98 to 23.9 µM) | CCCCCCCCCCCCSC[C@H]1O[C@H](O[C@@H]2[C@@H](O)[C@H](O[C@H]3O[C@H](CN)[C@@H](O)C[C@H]3N)[C@@H](N)C[C@H]2N)[C@H](O)[C@@H](N)[C@@H]1O [Compound 3, O-3-Amino-3-deoxy-6-S-dodecyl-6-thio-α-D-glucopyranosyl-(1→6)-O-[2,6-diamino-2,3,6-trideoxy-α-D-ribo-hexopyranosyl-(1→4)]-2-deoxy-D-streptamine] | IC50 (BEAS-2B cell line): 31.3 to 62.5 µg/mL (≈ 48 to 95.9 µM)
15.6 (≈ 22.8 µM) | 31.3 (≈ 45.8 µM) | 15.6 (≈ 22.8 µM) | 15.6 (≈ 22.8 µM) | 15.6 (≈ 22.8 µM) | 15.6 (≈ 22.8 µM) | 7.8 (≈ 11.4 µM) | 3.9 (≈ 5.7 µM) | 15.6 (≈ 22.8 µM) | 7.8 (≈ 11.4 µM) | 7.8 (≈ 11.4 µM) | 7.8 (≈ 11.4 µM) | 1.95 (≈ 2.85 µM) | 0.48 (≈ 0.702 µM) | 0.975 (≈ 1.43 µM) | 1.95 to 3.9 (≈ 2.85 to 5.7 µM) | 3.9 (≈ 5.7 µM) | 62.5 (≈ 91.4 µM) | 7.8 to 31.3 (≈ 11.4 to 45.8 µM) | 3.9 to 15.6 (≈ 5.7 to 22.8 µM) | CCCCCCCCCCCCS(=O)(=O)C[C@H]1O[C@H](O[C@@H]2[C@@H](O)[C@H](O[C@H]3O[C@H](CN)[C@@H](O)C[C@H]3N)[C@@H](N)C[C@H]2N)[C@H](O)[C@@H](N)[C@@H]1O [Compound 4, O-3-Amino-3,6-dideoxy-6-(dodecylsulfonyl)-α-D-glucopyranosyl-(1→6)-O-[2,6-diamino-2,3,6-trideoxy-α-D-ribo-hexopyranosyl-(1→4)]-2-deoxy-D-streptamine] | IC50 (BEAS-2B cell line): > 62.5 µg/mL
31.3 (≈ 47.5 µM) | 31.3 (≈ 47.5 µM) | 62.5 (≈ 94.9 µM) | 62.6 (≈ 95 µM) | 31.3 (≈ 47.5 µM) | 62.5 (≈ 94.9 µM) | 31.3 (≈ 47.5 µM) | 15.6 (≈ 23.7 µM) | 62.5 (≈ 94.9 µM) | 15.6 (≈ 23.7 µM) | 15.6 (≈ 23.7 µM) | 31.3 (≈ 47.5 µM) | 0.975 (≈ 1.48 µM) | 0.975 (≈ 1.48 µM) | 0.48 (≈ 0.729 µM) | 1.95 to 3.9 (≈ 2.96 to 5.92 µM) | 3.9 (≈ 5.92 µM) | > 62.5 | 31.3 to 62.5 (≈ 47.5 to 94.9 µM) | 15.6 to 62.5 (≈ 23.7 to 94.9 µM) | CCCCCCCCCCc1cn(C[C@H]2O[C@H](O[C@@H]3[C@@H](O)[C@H](O[C@H]4O[C@H](CN)[C@@H](O)C[C@H]4N)[C@@H](N)C[C@H]3N)[C@H](O)[C@@H](N)[C@@H]2O)nn1 [Compound 7a, O-3-Amino-3,6-dideoxy-6-(4-decyl-1H-1,2,3-triazol-1-yl)-α-D-glucopyranosyl-(1→6)-O-[2,6-diamino-2,3,6-trideoxy-α-D-ribo-hexopyranosyl-(1→4)]-2-deoxy-D-streptamine] | IC50 (BEAS-2B cell line): > 62.5 µg/mL

Reference: PMC5971061, “Differential Effects of Linkers on the Activity of Amphiphilic Tobramycin Antifungals” (Molecules : A Journal of Synthetic Chemistry and Natural …, 2018)
